From patent US20260091078A1, “OLIGOPEPTIDE THAT INHIBITS ANGIOGENESIS AND VASCULAR FUNCTION” (UNIVERSIDAD NACIONAL AUTONOMA DE MEXICO, priority 2019, published 2026)

How the values were obtained:
[1] = test system: immortalized bovine umbilical-vein endothelial cells (BUVEC E6E7); experiment: Proliferation of BUVEC E6E7 endothelial cells stimulated with VEGF (EdU click assay); format: cell-based; conditions: BUVEC E6E7, 50 ng ml^-1 VEGF, 24 hours, 0.001 to 100 nM; read-out: effective dose (EC50) for inhibition of proliferation
Experimental: On a 96-well plate treated for cell culture, BUVEC E6E7 and HUVEC cells were seeded at a density of ˜14,000 and ˜11,000 cells cm^−2, respectively. BUVEC E6E7 cells were maintained in F12K culture media with 10% (v/v) fetal bovine serum (FBS) and the HUVEC in F12K media supplemented with 20% of FBS, 100 μg ml^−1 heparin and 25 μg ml^−1 of endothelial cell growth supplement (ECGS). After 24 hours, the cells were starved with FBS-reduced media (0.1% of FBS for BUVEC E6E7 and 0.5% for HUVEC) for 16 hours to synchronize cells in phase GO of the reproductive cycle. After this time, FBS and heparin were replenished only to HUVEC. The cells were then treated with vasoinhibin or the oligopeptide THGRGFI in concentrations ranging from 0.001 to 100 nM for 24 hours in the presence of 10 μM of the thymidine analog 5-Ethynyl-2′-deoxyuridine (EdU) and 50 ng ml^−1 VEGF for the BUVEC E6E7 or the combination of 25 ng ml^−1 VEGF and 20 ng ml^−1 bFGF for HUVEC. At the end of the experiment, cells were fixed with 4% paraformaldehyde, permeabilized with 0.5% Triton X-100 in TBS1x, and stained to detect the newly synthetized DNA by the incorporation of EdU using the “click” assay (which involves a copper catalyzed reaction to covalently bind fluorescent azide to the EDU incorporated to DNA). Total DNA was counterstained with Hoechst 33342 and the “click”-stained nuclei were quantified and plotted relative to the total number of Hoechst 33342-stained nuclei.
For the assay, BUVEC E6E7 cells were seeded at a density of ˜14′000 cells cm^−2 in a 96 well plate with F12K with 10% (v/v) FBS. After 24 hours, cells were starved with 0.1% of FBS for GO synchronization for ˜16 hours. Next, the cells were treated with the different oligopeptides in presence of 10 μM of the thymidine analog EdU and 50 ng ml^−1 of VEGF. Finally, the cells were fixed, permeabilized, and stained for the newly synthetized DNA by the EdU incorporation through the ‘click’ assay. The total DNA was stained with Hoechst 33342 and the percentage of ‘click’-stained nuclei over the total nuclei was a measure of proliferation.

[2] = test system: immortalized endothelial cells from the bovine umbilical vein (BUVEC E6E7); experiment: Transwell Matrigel invasion of BUVEC E6E7 stimulated with VEGF; format: cell-based; conditions: BUVEC E6E7, 100 nM, VEGF 50 ng mL^-1, 24 hours
Experimental: (§1) Endothelial cells were seeded over 100 μl Matrigel™ matrix (380 ng μl^−1) on a permeable ‘transwell’ support in a transwell chamber having an area of 0.33 cm^2 and 8 μm of pore-diameter at a density of 30,000 and 14,000 cells cm^−2 for BUVEC E6E7 and HUVEC cells, respectively. In the upper (luminal) compartment the cells were maintained with starving media F12K having 0.1 or 0.5% FBS for BUVEC E6E7 and HUVEC, respectively. In addition, HUVEC cells were maintained with 100 μg ml^−1 heparin. […] After 24 hours the media from both compartments and the luminal cells were removed. The abluminal cells were fixed with 100% MeOH for 10 minutes, permeabilized with TBS1x-0.5% Triton X-100, and stained with Hoechst 33342. The total number of cells in the abluminal compartment indicates the invasive activity of endothelial cells.
(§2) The inhibitory effect of 100 nM of the oligopeptide THGRGFI on the invasion of immortalized endothelial cells from the bovine umbilical vein (BUVEC E6E7) (FIG. 3A) or primary cells from the human umbilical vein (HUVEC) (FIG. 3B) stimulated in each case with VEGF (50 ng mL^−1) was compared with the inhibitory effect of 100 nM of the 123 amino acid vasoinhibin (***P<0.001).

[3] = test system: primary cells from the human umbilical vein (HUVEC); experiment: Transwell Matrigel invasion of HUVEC stimulated with VEGF; format: cell-based; conditions: 100 nM, VEGF 50 ng mL^-1, 24 hours
Experimental: as §1, §2

[4] = test system: intracellular adhesion molecule 1 (ICAM1); experiment: Expression of vasoinhibin target gene ICAM1 mRNA in BUVEC E6E7 (qPCR); format: cell-based, bovine; conditions: BUVEC E6E7, 100 nM, 4 hours
Experimental: Vasoinhibin induces the expression of a variety of genes via the activation of NF-KB to promote angiostatic and inflammatory effects. In particular, interleukin-1 alpha (IL-1α) and the intercellular adhesion molecule 1 (ICAM1) are vasoinhibin gene targets in the bovine endothelial cells. To evaluate the ability of the oligopeptide […] to induce the expression of IL-1α and ICAM1, BUVEC […] cells were seeded on 12 well plates with F12K-10% FBS, grown to 80% confluency, and starved with low serum (0.1% FBS) culture medium for 24 h. […] After 4 hours the RNA was extracted from the cells using Trizol (Invitrogen, Carlsbad, CA) and retrotranscribed using the High Capacity cDNA Reverse Transcription Kit (Applied Biosystems, Foster City, CA). The RT-PCR products were quantified in a Maxima SYBRgreen qPCR (Thermo Fisher Scientific) 10 μl final volume reaction mixture containing the template and 0.25 μM of each primer. The PCR amplification was done in the CFX96 Real Time PCR (BioRad), comprising a 10-minute denaturalization at 95° C., followed by 35 amplification cycles (95° C. for 10 sec, 58° C. for 30 sec, and 72° C. for 30 sec). […] The PCR data was analyzed by the 2^-ΔΔCT method and the threshold of the cycles (CT) was normalized by the constitutive housekeeping gene cyclophilin A (PPIA). […]

Ac-THGRGFI-NH2 [THGRGFI, Thr His Gly Arg Gly Phe Ile]
EC50 [1]: ~1 nM | inhibition of invasion of endothelial cells [2]: significatively inhibited | inhibition of invasion of endothelial cells [3]: significatively inhibited | fold-change of expression of ICAM1 mRNA versus non-treated control [4]: ~13 fold
